Legend:
Test in all cases: scanMAX Kinase assay panel
Type in all cases: binding
[1] = target: ABL1(Q252H)-nonphosphorylated (Homo sapiens (Human), UniProt P00519, Q252H); settings: read-out: % control
Outline: (§1)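 Using scanMAX, compound selectivity across kinases is determined. The output is % control, bounded by a DMSO control at 100% and a reference positive compound at 0%.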

[2] = target: ALK(C1156Y) (Homo sapiens (Human), UniProt Q9UM73, C1156Y); settings: read-out: % control
Outline: as §1

[3] = target: AMPK-alpha1 (Homo sapiens (Human), UniProt Q13131); settings: read-out: % control
Outline: as §1

[4] = target: ANKK1 (Homo sapiens (Human), UniProt Q8NFD2); settings: read-out: % control
Outline: as §1

[5] = target: ARK5 (Homo sapiens (Human), UniProt O60285); settings: read-out: % control
Outline: as §1

[6] = target: CDK9 (Homo sapiens (Human), UniProt P50750); settings: read-out: % control
Outline: as §1

[7] = target: CHEK1 (Homo sapiens (Human), UniProt O14757); settings: read-out: % control
Outline: as §1

[8] = target: CSF1R (Homo sapiens (Human), UniProt P07333); settings: read-out: % control
Outline: as §1

[9] = target: CSNK1A1L (Homo sapiens (Human), UniProt Q8N752); settings: read-out: % control
Outline: as §1

[10] = target: DMPK (Homo sapiens (Human), UniProt Q09013); settings: read-out: % control
Outline: as §1

[11] = target: EGFR(T790M) (Homo sapiens (Human), UniProt P00533, T790M); settings: read-out: % control
Outline: as §1

[12] = target: EPHA6 (Homo sapiens (Human), UniProt Q9UF33); settings: read-out: % control
Outline: as §1

[13] = target: EPHB2 (Homo sapiens (Human), UniProt P29323); settings: read-out: % control
Outline: as §1

[14] = target: EPHB6 (Homo sapiens (Human), UniProt O15197); settings: read-out: % control
Outline: as §1

[15] = target: ERBB3 (Homo sapiens (Human), UniProt P21860); settings: read-out: % control
Outline: as §1

[16] = system: FLT3(ITD); settings: 1 uM
Outline: as §1

[17] = system: FLT3(ITD, F691L); settings: 1 uM
Outline: as §1

[18] = target: GRK7 (Homo sapiens (Human), UniProt Q8WTQ7); settings: read-out: % control
Outline: as §1

[19] = target: HIPK2 (Homo sapiens (Human), UniProt Q9H2X6); settings: read-out: % control
Outline: as §1

[20] = target: IRAK1 (Homo sapiens (Human), UniProt P51617); settings: read-out: % control
Outline: as §1

[21] = target: LATS2 (Homo sapiens (Human), UniProt Q9NRM7); settings: read-out: % control
Outline: as §1

[22] = target: MAP4K5 (Homo sapiens (Human), UniProt Q9Y4K4); settings: read-out: % control
Outline: as §1

[23] = target: NDR2 (Homo sapiens (Human), UniProt Q9Y2H1); settings: read-out: % control
Outline: as §1

[24] = target: NEK6 (Homo sapiens (Human), UniProt Q9HC98); settings: read-out: % control
Outline: as §1

[25] = target: PFTK1 (Homo sapiens (Human), UniProt O94921); settings: read-out: % control
Outline: as §1

[26] = target: PIK3C2B (Homo sapiens (Human), UniProt O00750); settings: read-out: % control
Outline: as §1

[27] = target: PIK3CA(E542K) (Homo sapiens (Human), UniProt P42336, E542K); settings: read-out: % control
Outline: as §1

[28] = target: PIK3CB (Homo sapiens (Human), UniProt P42338); settings: read-out: % control
Outline: as §1

[29] = target: RIPK2 (Homo sapiens (Human), UniProt O43353); settings: read-out: % control
Outline: as §1

[30] = target: ROCK2 (Homo sapiens (Human), UniProt O75116); settings: read-out: % control
Outline: as §1

[31] = target: STK33 (Homo sapiens (Human), UniProt Q9BYT3); settings: read-out: % control
Outline: as §1

[32] = target: STK39 (Homo sapiens (Human), UniProt Q9UEW8); settings: read-out: % control
Outline: as §1

[33] = target: TAK1 (Homo sapiens (Human), UniProt O43318); settings: read-out: % control
Outline: as §1

[34] = target: TGFBR1 (Homo sapiens (Human), UniProt P36897); settings: read-out: % control
Outline: as §1

[35] = target: TNK2 (Homo sapiens (Human), UniProt Q07912); settings: read-out: % control
Outline: as §1

[36] = target: TNNI3K (Homo sapiens (Human), UniProt Q59H18); settings: read-out: % control
Outline: as §1

[37] = target: TYK2(JH2domain-pseudokinase) (Homo sapiens (Human), UniProt P29597); settings: read-out: % control
Outline: as §1

[38] = target: ULK3 (Homo sapiens (Human), UniProt Q6PHR2); settings: read-out: % control
Outline: as §1

[39] = target: VPS34 (Homo sapiens (Human), UniProt Q8NEB9); settings: read-out: % control
Outline: as §1

TNNI3K, sequence (Q59H18 whole entry): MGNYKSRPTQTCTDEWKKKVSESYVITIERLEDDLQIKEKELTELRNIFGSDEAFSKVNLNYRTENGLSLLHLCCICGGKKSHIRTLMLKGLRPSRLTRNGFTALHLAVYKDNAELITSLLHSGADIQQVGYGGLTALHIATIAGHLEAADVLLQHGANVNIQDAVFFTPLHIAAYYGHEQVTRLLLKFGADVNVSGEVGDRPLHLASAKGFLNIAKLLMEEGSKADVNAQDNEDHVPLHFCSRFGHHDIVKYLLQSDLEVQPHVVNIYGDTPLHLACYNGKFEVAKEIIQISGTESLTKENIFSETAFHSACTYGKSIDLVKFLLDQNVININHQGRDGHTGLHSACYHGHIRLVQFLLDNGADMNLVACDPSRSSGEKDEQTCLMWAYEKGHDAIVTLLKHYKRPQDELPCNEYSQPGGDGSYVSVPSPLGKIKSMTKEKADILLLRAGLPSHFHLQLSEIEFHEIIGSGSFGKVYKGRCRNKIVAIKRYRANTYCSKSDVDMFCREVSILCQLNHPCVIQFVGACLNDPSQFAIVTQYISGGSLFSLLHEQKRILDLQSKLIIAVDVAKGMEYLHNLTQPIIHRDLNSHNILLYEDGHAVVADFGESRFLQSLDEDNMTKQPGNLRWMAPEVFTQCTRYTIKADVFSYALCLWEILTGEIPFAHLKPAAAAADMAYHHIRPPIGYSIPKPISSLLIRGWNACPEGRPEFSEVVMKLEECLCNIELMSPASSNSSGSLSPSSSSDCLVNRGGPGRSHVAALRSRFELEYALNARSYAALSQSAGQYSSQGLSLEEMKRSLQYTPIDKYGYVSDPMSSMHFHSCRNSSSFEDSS
IRAK1, sequence (P51617 whole entry): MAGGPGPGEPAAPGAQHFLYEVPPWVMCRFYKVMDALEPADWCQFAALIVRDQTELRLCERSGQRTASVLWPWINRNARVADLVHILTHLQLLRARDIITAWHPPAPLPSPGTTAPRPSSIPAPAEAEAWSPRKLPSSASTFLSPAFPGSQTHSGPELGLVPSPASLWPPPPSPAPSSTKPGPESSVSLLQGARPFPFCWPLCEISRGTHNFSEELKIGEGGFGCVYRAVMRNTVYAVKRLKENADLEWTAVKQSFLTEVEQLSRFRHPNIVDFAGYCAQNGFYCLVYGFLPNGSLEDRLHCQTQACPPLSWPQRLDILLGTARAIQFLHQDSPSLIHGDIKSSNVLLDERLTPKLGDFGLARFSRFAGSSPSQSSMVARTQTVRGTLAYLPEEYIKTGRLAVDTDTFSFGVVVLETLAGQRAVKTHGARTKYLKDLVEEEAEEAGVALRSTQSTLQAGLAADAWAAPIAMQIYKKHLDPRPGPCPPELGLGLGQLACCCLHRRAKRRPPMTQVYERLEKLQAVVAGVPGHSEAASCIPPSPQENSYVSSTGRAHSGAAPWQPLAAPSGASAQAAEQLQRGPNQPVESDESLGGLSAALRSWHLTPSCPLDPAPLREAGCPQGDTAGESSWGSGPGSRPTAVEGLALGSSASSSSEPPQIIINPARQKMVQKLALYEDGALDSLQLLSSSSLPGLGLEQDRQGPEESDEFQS
TYK2(JH2domain-pseudokinase), sequence (P29597 589-875): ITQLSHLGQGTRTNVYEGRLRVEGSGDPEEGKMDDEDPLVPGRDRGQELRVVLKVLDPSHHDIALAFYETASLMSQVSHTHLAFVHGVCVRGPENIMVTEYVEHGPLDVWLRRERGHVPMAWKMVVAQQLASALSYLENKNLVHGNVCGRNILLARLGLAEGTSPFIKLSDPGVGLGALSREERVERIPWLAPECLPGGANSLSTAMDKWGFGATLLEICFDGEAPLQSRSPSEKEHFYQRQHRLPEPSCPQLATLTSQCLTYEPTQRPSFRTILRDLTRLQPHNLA
PFTK1, sequence (O94921 whole entry): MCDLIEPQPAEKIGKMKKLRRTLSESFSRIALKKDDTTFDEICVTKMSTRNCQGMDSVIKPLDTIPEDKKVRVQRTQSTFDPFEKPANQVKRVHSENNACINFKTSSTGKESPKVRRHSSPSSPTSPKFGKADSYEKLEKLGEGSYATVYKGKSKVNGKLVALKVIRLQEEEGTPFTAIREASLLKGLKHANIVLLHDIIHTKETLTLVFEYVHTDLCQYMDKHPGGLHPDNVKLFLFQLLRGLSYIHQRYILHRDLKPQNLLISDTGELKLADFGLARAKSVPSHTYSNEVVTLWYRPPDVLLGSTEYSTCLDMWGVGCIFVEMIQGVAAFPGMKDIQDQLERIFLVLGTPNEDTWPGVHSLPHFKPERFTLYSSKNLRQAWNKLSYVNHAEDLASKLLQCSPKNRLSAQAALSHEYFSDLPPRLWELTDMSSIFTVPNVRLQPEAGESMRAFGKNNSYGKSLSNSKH
ALK(C1156Y), sequence (Q9UM73 19-1620 C1156Y): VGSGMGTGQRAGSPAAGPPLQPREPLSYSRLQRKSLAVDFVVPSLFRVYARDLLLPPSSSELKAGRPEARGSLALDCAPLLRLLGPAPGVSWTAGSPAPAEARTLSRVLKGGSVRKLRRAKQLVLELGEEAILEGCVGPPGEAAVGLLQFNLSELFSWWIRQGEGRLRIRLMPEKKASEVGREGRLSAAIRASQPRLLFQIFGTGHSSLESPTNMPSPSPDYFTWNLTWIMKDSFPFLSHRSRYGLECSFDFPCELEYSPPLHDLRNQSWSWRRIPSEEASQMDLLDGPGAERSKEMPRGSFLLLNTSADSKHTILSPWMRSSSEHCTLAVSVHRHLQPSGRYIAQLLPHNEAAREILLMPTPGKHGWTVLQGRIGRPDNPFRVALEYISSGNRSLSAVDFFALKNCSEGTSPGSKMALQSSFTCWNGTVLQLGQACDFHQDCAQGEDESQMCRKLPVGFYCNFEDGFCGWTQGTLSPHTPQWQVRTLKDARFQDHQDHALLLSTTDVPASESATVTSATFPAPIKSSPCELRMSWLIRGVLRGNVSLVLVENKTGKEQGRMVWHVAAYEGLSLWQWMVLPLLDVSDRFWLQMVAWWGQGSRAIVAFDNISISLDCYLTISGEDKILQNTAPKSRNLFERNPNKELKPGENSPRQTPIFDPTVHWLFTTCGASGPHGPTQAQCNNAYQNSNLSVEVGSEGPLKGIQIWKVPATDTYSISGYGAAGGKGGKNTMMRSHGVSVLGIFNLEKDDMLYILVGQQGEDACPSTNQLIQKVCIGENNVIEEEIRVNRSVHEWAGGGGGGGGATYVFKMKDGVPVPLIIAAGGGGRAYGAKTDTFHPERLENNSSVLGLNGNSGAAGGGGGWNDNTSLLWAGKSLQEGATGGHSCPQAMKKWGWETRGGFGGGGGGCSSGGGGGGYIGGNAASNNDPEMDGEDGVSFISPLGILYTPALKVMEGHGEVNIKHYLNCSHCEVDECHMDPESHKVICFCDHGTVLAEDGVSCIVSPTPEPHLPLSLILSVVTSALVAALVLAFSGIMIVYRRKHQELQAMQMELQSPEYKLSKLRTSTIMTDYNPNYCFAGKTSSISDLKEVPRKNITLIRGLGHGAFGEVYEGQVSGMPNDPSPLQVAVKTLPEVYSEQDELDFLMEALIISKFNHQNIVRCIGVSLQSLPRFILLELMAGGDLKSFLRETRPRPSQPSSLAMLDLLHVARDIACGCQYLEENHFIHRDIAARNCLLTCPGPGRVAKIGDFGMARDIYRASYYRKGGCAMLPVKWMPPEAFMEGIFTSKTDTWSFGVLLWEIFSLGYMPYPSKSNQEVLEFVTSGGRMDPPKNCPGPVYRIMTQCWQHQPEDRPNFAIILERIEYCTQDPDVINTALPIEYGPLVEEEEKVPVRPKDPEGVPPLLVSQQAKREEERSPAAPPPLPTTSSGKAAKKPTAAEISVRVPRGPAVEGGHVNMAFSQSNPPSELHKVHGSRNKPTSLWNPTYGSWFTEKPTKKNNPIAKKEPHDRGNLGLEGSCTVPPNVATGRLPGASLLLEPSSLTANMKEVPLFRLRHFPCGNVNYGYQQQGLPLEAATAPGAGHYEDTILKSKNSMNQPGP
EGFR(T790M), sequence (P00533 25-1210 T790M): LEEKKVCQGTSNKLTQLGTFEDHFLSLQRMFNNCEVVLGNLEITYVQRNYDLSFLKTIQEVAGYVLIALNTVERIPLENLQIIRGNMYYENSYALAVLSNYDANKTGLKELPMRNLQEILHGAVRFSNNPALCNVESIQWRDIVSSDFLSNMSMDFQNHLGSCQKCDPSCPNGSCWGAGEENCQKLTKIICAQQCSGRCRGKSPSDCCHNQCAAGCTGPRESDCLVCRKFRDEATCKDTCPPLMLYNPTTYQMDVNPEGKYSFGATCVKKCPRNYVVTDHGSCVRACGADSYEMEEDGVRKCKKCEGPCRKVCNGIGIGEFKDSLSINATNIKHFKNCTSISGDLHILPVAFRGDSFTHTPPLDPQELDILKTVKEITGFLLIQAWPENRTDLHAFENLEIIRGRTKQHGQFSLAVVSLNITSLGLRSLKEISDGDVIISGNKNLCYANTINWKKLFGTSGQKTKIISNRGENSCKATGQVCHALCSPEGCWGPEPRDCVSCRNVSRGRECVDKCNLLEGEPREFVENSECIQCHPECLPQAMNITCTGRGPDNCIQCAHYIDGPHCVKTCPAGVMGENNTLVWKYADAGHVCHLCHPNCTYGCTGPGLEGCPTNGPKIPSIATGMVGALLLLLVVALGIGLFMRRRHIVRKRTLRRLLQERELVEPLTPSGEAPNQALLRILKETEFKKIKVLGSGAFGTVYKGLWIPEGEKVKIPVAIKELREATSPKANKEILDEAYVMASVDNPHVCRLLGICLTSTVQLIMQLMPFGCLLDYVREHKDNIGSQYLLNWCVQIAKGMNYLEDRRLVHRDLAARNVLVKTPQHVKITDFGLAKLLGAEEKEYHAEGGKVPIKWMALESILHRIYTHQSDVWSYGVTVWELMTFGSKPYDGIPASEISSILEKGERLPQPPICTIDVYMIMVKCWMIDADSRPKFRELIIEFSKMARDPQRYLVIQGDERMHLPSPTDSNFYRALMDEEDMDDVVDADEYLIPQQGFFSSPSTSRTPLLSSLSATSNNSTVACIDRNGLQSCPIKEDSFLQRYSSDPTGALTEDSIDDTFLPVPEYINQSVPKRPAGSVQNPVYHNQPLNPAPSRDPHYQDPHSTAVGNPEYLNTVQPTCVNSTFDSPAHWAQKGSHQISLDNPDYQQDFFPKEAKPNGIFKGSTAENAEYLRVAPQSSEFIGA

Compound	remaining binding at 1 µM [1] [%]	remaining binding at 1 µM [2] [%]	remaining binding at 1 µM [3] [%]	remaining binding at 1 µM [4] [%]	remaining binding at 1 µM [5] [%]	remaining binding at 1 µM [6] [%]	remaining binding at 1 µM [7] [%]	remaining binding at 1 µM [8] [%]	remaining binding at 1 µM [9] [%]	remaining binding at 1 µM [10] [%]	remaining binding at 1 µM [11] [%]	remaining binding at 1 µM [12] [%]	remaining binding at 1 µM [13] [%]	remaining binding at 1 µM [14] [%]	remaining binding at 1 µM [15] [%]	% control [16] [%]	% control [17] [%]	remaining binding at 1 µM [18] [%]	remaining binding at 1 µM [19] [%]	remaining binding at 1 µM [20] [%]	also measured
CCNc1cc(Nc2ccc(C(=O)N3CCC(N4CCOCC4)CC3)cc2OC)nc2[nH]cc(C(F)(F)F)c12 [Example 57, (4-((4-(ethylamino)-3-(trifluoromethyl)-1H-pyrrolo[2,3-b]pyridin-6-yl)amino)-3-methoxyphenyl) (4-morpholinopiperidin-1-yl)methanone]	54	3.5	75	100	94	85	91	72	71	100	88	87	100	99	100	79	84	84	100	100	remaining binding at 1 µM [21]: 100%; remaining binding at 1 µM [22]: 100%; remaining binding at 1 µM [23]: 80%; remaining binding at 1 µM [24]: 84%; remaining binding at 1 µM [25]: 95%; remaining binding at 1 µM [26]: 78%; remaining binding at 1 µM [27]: 100%; remaining binding at 1 µM [28]: 100%; remaining binding at 1 µM [29]: 94%; remaining binding at 1 µM [30]: 100%; remaining binding at 1 µM [31]: 16%; remaining binding at 1 µM [32]: 43%; remaining binding at 1 µM [33]: 79%; remaining binding at 1 µM [34]: 69%; remaining binding at 1 µM [35]: 86%; remaining binding at 1 µM [36]: 100%; remaining binding at 1 µM [37]: 100%; remaining binding at 1 µM [38]: 83%; remaining binding at 1 µM [39]: 79%
CCNc1cc(Nc2ccc(C(=O)N3CCC(N4CCOCC4)CC3)cc2OC)nc2[nH]cc(C#N)c12 [Example 18, 4-(ethylamino)-6-((2-methoxy-4-(4-morpholinopiperidine-1-carbonyl)phenyl)amino)-1H-pyrrolo[2,3-b]pyridine-3-carbonitrile]	95	2.4	92	78	94	100	100	73	3.1	81	100	98	87	78	97	92	46	96	68	79	remaining binding at 1 µM [21]: 26%; remaining binding at 1 µM [22]: 99%; remaining binding at 1 µM [23]: 95%; remaining binding at 1 µM [24]: 97%; remaining binding at 1 µM [25]: 89%; remaining binding at 1 µM [26]: 100%; remaining binding at 1 µM [27]: 96%; remaining binding at 1 µM [28]: 89%; remaining binding at 1 µM [29]: 86%; remaining binding at 1 µM [30]: 7.8%; remaining binding at 1 µM [31]: 17%; remaining binding at 1 µM [32]: 26%; remaining binding at 1 µM [33]: 59%; remaining binding at 1 µM [34]: 100%; remaining binding at 1 µM [35]: 92%; remaining binding at 1 µM [36]: 91%; remaining binding at 1 µM [37]: 67%; remaining binding at 1 µM [38]: 95%; remaining binding at 1 µM [39]: 96%
